Patent US20230127703A1, “THERAPEUTIC AGENT FOR CORONAVIRUS INFECTION” (FUJIFILM Toyama Chemical Co., Ltd., priority 2020, published 2023)

Test system: SARS-CoV-2
[1] = improvement of body temperature, SpO2, chest imaging followed by negative conversion of SARS-CoV-2, N = 107

`NC(=O)c1nc(F)cnc1O` [Compound A, 6-fluoro-3-hydroxy-2-pyrazinecarboxamide] was tested, and the “median time to improvement compared with control group” value (Compound A group (107 patients) vs control group (49 patients)) was “shorter by approximately three days”, the “treatment effect compared with control group” value (Compound A group vs control group) was “statistically significantly higher treatment effect” and the clinical safety (Compound A group, 107 patients, up to 14 days of treatment) was “no clinical safety concerns were identified”. For the same compound, the “Time to improvement in 25% of patients (days) (median)” value [1] was 7.7 days, the “Time to improvement in 50% of patients (days) (median)” value [1] was 11.8 days and the “Time to improvement in 75% of patients (days) (median)” value [1] was 15.6 days. For the same compound, the Patients with improvement (number of patients of N = 107, standard of care + 1,800 mg BID Day 1, 800 mg BID up to 13 days, oral, mITT) was 82.
